According to patent publication US20070128217A1 (priority 2003, published 2007):

Assays:
[1] = test system: rabbit serum obtained by immunizing a rabbit with the SARS-CoV strain Frankfurt 1; type: binding; set-up: Binding of a rabbit serum to linear peptides / Binding of a rabbit serum to looped peptides / Rabbit serum linear peptides / Rabbit serum looped peptides / Binding of a rabbit serum to linear peptides of protein N of SARS-CoV Urbani (Rabbit serum linear peptides) / Binding of a rabbit serum to looped/cyclic peptides of protein N of SARS-CoV Urbani (Rabbit serum looped peptides): unit not given here
[2] = test system: antibodies in sera from SARS patients (sera 1a, 1b, 2, 6, 37, 62, London, SARS-yellow, SARS-green); type: binding, human; set-up: Binding of serum 6 to linear peptides of protein X1 of SARS-CoV Urbani / Binding of serum 37 to linear peptides of protein X1 of SARS-CoV Urbani / Binding of serum 6 to looped/cyclic peptide (PEPSCAN-ELISA) / Binding of serum 37 to looped/cyclic peptide (PEPSCAN-ELISA) / Binding of serum 37 to looped/cyclic peptides of protein X1 of SARS-CoV Urbani / Binding of serum 6 to linear peptides of protein X2 / Binding of serum 37 to linear peptides of protein X2 / Binding of serum 37 to looped/cyclic peptides of protein X2 of SARS-CoV Urbani / Binding of serum 6 to linear peptides of protein M of SARS-CoV Urbani / Binding of serum 37 to linear peptides of protein M of SARS-CoV Urbani / Binding of serum 6 to looped/cyclic peptides of protein M of SARS-CoV Urbani / Binding of serum 37 to looped/cyclic peptides of protein M of SARS-CoV Urbani / Binding of serum 6 to linear peptides of protein X3 of SARS-CoV Urbani / Binding of serum 37 to linear peptides of protein X3 of SARS-CoV Urbani / Binding of serum 37 to looped/cyclic peptides of protein X3 of SARS-CoV Urbani / Binding of serum 6 to linear peptides of protein X4 of SARS-CoV Urbani / Binding of serum 37 to linear peptides of protein X4 of SARS-CoV Urbani / Binding of serum 37 to looped/cyclic peptides of protein X4 of SARS-CoV Urbani / Binding of serum 6 to linear peptides of protein X5 of SARS-CoV Urbani / Binding of serum 37 to linear peptides of protein X5 of SARS-CoV Urbani / Binding of serum 37 to looped/cyclic peptides of protein X5 of SARS-CoV Urbani / Binding of serum 6 to linear peptides of protein N of SARS-CoV Urbani / Binding of serum 37 to linear peptides of protein N of SARS-CoV Urbani / Binding of serum 6 to linear peptide (PEPSCAN-ELISA) / Binding of serum 1a to looped/cyclic peptides of protein N of SARS-CoV Urbani / Binding of serum 1b to looped/cyclic peptides of protein N of SARS-CoV Urbani / Binding of serum 2 to looped/cyclic peptides of protein N of SARS-CoV Urbani / Binding of serum 6 to looped/cyclic peptides of protein N of SARS-CoV Urbani / Binding of serum 37 to looped/cyclic peptides of protein N of SARS-CoV Urbani / Binding of serum 62 to looped/cyclic peptides of protein N of SARS-CoV Urbani / Binding of serum London to looped/cyclic peptides of protein N of SARS-CoV Urbani / Binding of serum SARS-green to looped/cyclic peptides of protein N of SARS-CoV Urbani: unit not given here
[3] = test system: control sera (pooled serum of ten healthy LUMC hospital workers; commercial negative donor pooled serum from the Dutch bloodbank); type: binding, human; set-up: Binding of Control serum LUMC to linear peptides / Binding of Control serum Blood-bank to linear peptides / Binding of Control serum LUMC to looped peptides / Binding of Control Serum Blood-Bank to Looped peptides / Binding of Control serum LUMC to linear peptides of the protein M of SARS-CoV Urbani / Binding of Control serum Blood-bank to linear peptides of the protein M of SARS-CoV Urbani / Binding of Control serum LUMC to looped peptides of the protein M of SARS-CoV Urbani / Binding of Control Serum Blood-Bank to Looped peptides of the protein M of SARS-CoV Urbani: unit not given here

## SYFVASFRLFARTRS
[1]
  Rabbit serum linear peptides: 0.2
  Rabbit serum looped peptides: 0.4
[2]
  Binding of serum 1a to linear peptides of protein M of SARS-CoV Urbani: 0.7
  Binding of serum 1b to linear peptides of protein M of SARS-CoV Urbani: 0.6
  Binding of serum 2 to linear peptides of protein M of SARS-CoV Urbani: 0.5
  Binding of serum 6 to linear peptides of protein M of SARS-CoV Urbani: 0.5
  Binding of serum 37 to linear peptides of protein M of SARS-CoV Urbani: 0.4
  Binding of serum 62 to linear peptides of protein M of SARS-CoV Urbani: 0.4
  Binding of serum London to linear peptides of protein M of SARS-CoV Urbani: 0.3
  Binding of serum SARS-green to linear peptides of protein M of SARS-CoV Urbani: 0.4
  Binding of serum SARS-yellow to linear peptides of protein M of SARS-CoV Urbani: 0.1
  Recognition of the peptide by sera of SARS-CoV infected individuals, and form (linear, looped/cyclic) in which it is recognized: recognized in looped/cyclic form
[3]
  Binding of Control Serum Blood-Bank to Looped peptides of the protein M of SARS-CoV Urbani: 1.0
  Binding of Control serum Blood-bank to linear peptides of the protein M of SARS-CoV Urbani: 0.6
  Binding of Control serum LUMC to linear peptides of the protein M of SARS-CoV Urbani: 0.5
  Binding of Control serum LUMC to looped peptides of the protein M of SARS-CoV Urbani: 0.9

## INACRIIMRCWLCWK
[1]
  Recognition of the peptide by the rabbit serum: recognized
[2]
  Binding of serum 1a to looped/cyclic peptide (PEPSCAN-ELISA): 0.6
  Binding of serum 1b to looped/cyclic peptide (PEPSCAN-ELISA): 0.4
  Binding of serum 2 to looped/cyclic peptide (PEPSCAN-ELISA): 0.6
  Binding of serum 6 to looped/cyclic peptide (PEPSCAN-ELISA): 0.6
  Binding of serum 37 to looped/cyclic peptide (PEPSCAN-ELISA): 0.5
  Binding of serum 62 to looped/cyclic peptide (PEPSCAN-ELISA): 0.6
  Binding of serum London to looped/cyclic peptide (PEPSCAN-ELISA): 0.4
  Binding of serum SARS-green to looped/cyclic peptide (PEPSCAN-ELISA): 0.3
  Binding of serum SARS-yellow to looped/cyclic peptide (PEPSCAN-ELISA): 0.5
  Recognition of the peptide by sera of SARS-CoV infected individuals, and form (linear, looped/cyclic) in which it is recognized: recognized in linear form
[3]
  Binding of Control Serum Blood-Bank to Looped peptides: 0.7
  Binding of Control serum Blood-bank to linear peptides: 0.9
  Binding of Control serum LUMC to linear peptides: 0.4
  Binding of Control serum LUMC to looped peptides: 0.6

## ISPKFTTSLSLHKLL
[1]
  Binding of a rabbit serum to linear peptides: 0.3
  Binding of a rabbit serum to looped peptides: 0.4
[2]
  Binding of serum 1a to linear peptides of protein X2: 0.5
  Binding of serum 1a to looped/cyclic peptides of protein X2 of SARS-CoV Urbani: 0.5
  Binding of serum 1b to linear peptides of protein X2: 0.4
  Binding of serum 1b to looped/cyclic peptides of protein X2 of SARS-CoV Urbani: 0.5
  Binding of serum 2 to linear peptides of protein X2: 0.4
  Binding of serum 2 to looped/cyclic peptides of protein X2 of SARS-CoV Urbani: 0.4
  Binding of serum 6 to linear peptides of protein X2: 0.5
  Binding of serum 6 to looped/cyclic peptides of protein X2 of SARS-CoV Urbani: 0.4
  Binding of serum 37 to linear peptides of protein X2: 0.5
  Binding of serum 37 to looped/cyclic peptides of protein X2 of SARS-CoV Urbani: 0.4
  Binding of serum 62 to linear peptides of protein X2: 0.6
  Binding of serum 62 to looped/cyclic peptides of protein X2 of SARS-CoV Urbani: 0.7
  Binding of serum London to linear peptides of protein X2: 0.4
  Binding of serum London to looped/cyclic peptides of protein X2 of SARS-CoV Urbani: 0.3
  Binding of serum SARS-green to linear peptides of protein X2: 0.5
  Binding of serum SARS-green to looped/cyclic peptides of protein X2 of SARS-CoV Urbani: 0.2
  Binding of serum SARS-yellow to linear peptides of protein X2: 0.4
  Binding of serum SARS-yellow to looped/cyclic peptides of protein X2 of SARS-CoV Urbani: 0.3
[3]
  Binding of Control Serum Blood-Bank to Looped peptides: 0.7
  Binding of Control serum Blood-bank to linear peptides: 0.7
  Binding of Control serum LUMC to linear peptides: 0.3
  Binding of Control serum LUMC to looped peptides: 0.5

## SFNPETNILLNVPLR
[1]
  Rabbit serum linear peptides: 0.5
  Rabbit serum looped peptides: 0.4
[2]
  Binding of serum 1a to linear peptides of protein M of SARS-CoV Urbani: 0.7
  Binding of serum 1a to looped/cyclic peptides of protein M of SARS-CoV Urbani: 0.8
  Binding of serum 1b to linear peptides of protein M of SARS-CoV Urbani: 0.4
  Binding of serum 1b to looped/cyclic peptides of protein M of SARS-CoV Urbani: 0.7
  Binding of serum 2 to linear peptides of protein M of SARS-CoV Urbani: 0.5
  Binding of serum 2 to looped/cyclic peptides of protein M of SARS-CoV Urbani: 0.9
  Binding of serum 6 to linear peptides of protein M of SARS-CoV Urbani: 0.3
  Binding of serum 6 to looped/cyclic peptides of protein M of SARS-CoV Urbani: 0.8
  Binding of serum 37 to linear peptides of protein M of SARS-CoV Urbani: 0.7
  Binding of serum 37 to looped/cyclic peptides of protein M of SARS-CoV Urbani: 0.7
  Binding of serum 62 to linear peptides of protein M of SARS-CoV Urbani: 0.7
  Binding of serum 62 to looped/cyclic peptides of protein M of SARS-CoV Urbani: 0.8
  Binding of serum London to linear peptides of protein M of SARS-CoV Urbani: 0.3
  Binding of serum London to looped/cyclic peptides of protein M of SARS-CoV Urbani: 0.3
  Binding of serum SARS-green to linear peptides of protein M of SARS-CoV Urbani: 0.3
  Binding of serum SARS-green to looped/cyclic peptides of protein M of SARS-CoV Urbani: 0.3
  Binding of serum SARS-yellow to linear peptides of protein M of SARS-CoV Urbani: 0.1
  Binding of serum SARS-yellow to looped/cyclic peptides of protein M of SARS-CoV Urbani: 1.0
[3]
  Binding of Control Serum Blood-Bank to Looped peptides of the protein M of SARS-CoV Urbani: 1.0
  Binding of Control serum Blood-bank to linear peptides of the protein M of SARS-CoV Urbani: 0.7
  Binding of Control serum LUMC to linear peptides of the protein M of SARS-CoV Urbani: 0.4
  Binding of Control serum LUMC to looped peptides of the protein M of SARS-CoV Urbani: 1.0

## FLAVFQSATKIIALN
[1]
  Binding of a rabbit serum to linear peptides: 0.6
  Binding of a rabbit serum to looped peptides: 0.6
[2]
  Binding of serum 1a to linear peptides of protein X1 of SARS-CoV Urbani: 0.6
  Binding of serum 1a to looped/cyclic peptide (PEPSCAN-ELISA): 0.6
  Binding of serum 1b to linear peptides of protein X1 of SARS-CoV Urbani: 0.4
  Binding of serum 1b to looped/cyclic peptide (PEPSCAN-ELISA): 0.4
  Binding of serum 2 to linear peptides of protein X1 of SARS-CoV Urbani: 0.5
  Binding of serum 2 to looped/cyclic peptide (PEPSCAN-ELISA): 0.5
  Binding of serum 6 to linear peptides of protein X1 of SARS-CoV Urbani: 0.4
  Binding of serum 6 to looped/cyclic peptide (PEPSCAN-ELISA): 1.0
  Binding of serum 37 to linear peptides of protein X1 of SARS-CoV Urbani: 0.6
  Binding of serum 37 to looped/cyclic peptide (PEPSCAN-ELISA): 0.5
  Binding of serum 62 to linear peptides of protein X1 of SARS-CoV Urbani: 0.6
  Binding of serum 62 to looped/cyclic peptide (PEPSCAN-ELISA): 0.6
  Binding of serum London to linear peptides of protein X1 of SARS-CoV Urbani: 0.2
  Binding of serum London to looped/cyclic peptide (PEPSCAN-ELISA): 1.4
  Binding of serum SARS-green to linear peptides of protein X1 of SARS-CoV Urbani: 0.3
  Binding of serum SARS-green to looped/cyclic peptide (PEPSCAN-ELISA): 0.3
  Binding of serum SARS-yellow to linear peptides of protein X1 of SARS-CoV Urbani: 0.4
  Binding of serum SARS-yellow to looped/cyclic peptide (PEPSCAN-ELISA): 0.4
[3]
  Binding of Control Serum Blood-Bank to Looped peptides: 0.6
  Binding of Control serum Blood-bank to linear peptides: 0.6
  Binding of Control serum LUMC to linear peptides: 0.6
  Binding of Control serum LUMC to looped peptides: 0.7

## CLCKHKKVSTNLCTH
[1]
  Binding of a rabbit serum to linear peptides: 0.4
  Binding of a rabbit serum to looped peptides: 0.4
[2]
  Binding of serum 1a to looped/cyclic peptides of protein X2 of SARS-CoV Urbani: 0.3
  Binding of serum 1b to looped/cyclic peptides of protein X2 of SARS-CoV Urbani: 0.3
  Binding of serum 2 to looped/cyclic peptides of protein X2 of SARS-CoV Urbani: 0.3
  Binding of serum 6 to looped/cyclic peptides of protein X2 of SARS-CoV Urbani: 0.3
  Binding of serum 37 to looped/cyclic peptides of protein X2 of SARS-CoV Urbani: 0.4
  Binding of serum 62 to looped/cyclic peptides of protein X2 of SARS-CoV Urbani: 0.5
  Binding of serum London to looped/cyclic peptides of protein X2 of SARS-CoV Urbani: 0.2
  Binding of serum SARS-green to looped/cyclic peptides of protein X2 of SARS-CoV Urbani: 0.3
  Binding of serum SARS-yellow to looped/cyclic peptides of protein X2 of SARS-CoV Urbani: 0.4
  Recognition of the peptide by sera of SARS-CoV infected individuals, and form (linear, looped/cyclic) in which it is recognized: recognized in linear form
[3]
  Binding of Control Serum Blood-Bank to Looped peptides: 0.4
  Binding of Control serum Blood-bank to linear peptides: 1.0
  Binding of Control serum LUMC to linear peptides: 0.9
  Binding of Control serum LUMC to looped peptides: 0.3
